Results published in patent US20230159583A1, “COMPOUND FOR TREATING GOUT, PREPARATION METHOD THEREFOR, AND USE THEREOF” (Huazhong Pharmaceutical Co., Ltd., priority 2020, published 2023).
Read-outs that look alike come from different tables or passages of the source.

Legend:
Format in all cases: in vivo
[1] = tested on: carrageenan-induced mouse paw swelling; experiment: carrageenan-induced mouse paw swelling model; conditions: for Circumference of the paw after administration: 180 min after onset of inflammation (0.5% carrageenan); for inhibition in vivo at 0.26 mg/kg / inhibition in vivo at 13 mg/kg / inhibition in vivo at 130 mg/kg / change in vivo at 130 mg/kg: Mus musculus, po, 3 h; for inhibition in vivo at 0.26 mg/kg: dosage 0.26 mg/kg; for inhibition in vivo at 0.26 mg/kg / inhibition in vivo at 13 mg/kg / inhibition in vivo at 130 mg/kg: read-out: Swelling inhibition rate; for inhibition in vivo at 13 mg/kg: dosage 13 mg/kg; for change in vivo at 130 mg/kg: read-out: Swelling degree
Method: The anti-inflammatory effects of the compounds prepared in the above Examples were detected using a carrageenan-induced mouse paw swelling model, and the control sample was methylprednisolone:
Carrageenan-induced mouse paw swelling model is a classical acute inflammation model commonly used for evaluating or screening anti-inflammatory effects of drugs. When carrageenan is injected into the paw of mice, a series of reactions similar to human acute inflammation such as local capillary dilatation, increased vascular permeability, exudation and edema can be caused, so the model can be widely used in the evaluation of new drugs.
Reference for experimental method: Yang Huan, Cheng Xiao, Wang Yuehua, Du Guanhua. Effects of esculin on the swelling of toes and inflammation induced by carrageenan in mice [J]. Chinese Journal of New Drugs, 2016(25):2322.
On the day of the experiment, the circumference of right hind paw (cm) of each mouse was measured firstly, and then, after the onset of inflammation, the circumference of right hind paw was measured so that the difference of the circumferences of the paws before and after inflammation was swelling degree, and the swelling inhibition rate of paw (swelling inhibition rate %=(C−T)/C*100%); C=swelling rate of the control group %, and T=swelling rate of the treatment group) was calculated.
(2) Gavage administration was performed once a day for seven consecutive days. The circumference of the right hind paw was marked and measured before the last administration, and the average value of the two measurements was taken as the standard. 30 min after the last administration, 20 μL/mice of 0.5% carrageenan was injected into the right hind ankle of the mice to induce inflammation, and the circumference of paw was measured 180 min after the onset of inflammation. […]

[2] = tested on: ICR mice; conditions: p.o.
Method: The experiment was designed according to the “Technical Guideline for Acute Toxicity Test of Chemical Drugs” issued by the State Food and Drug Administration in March 2005. The doses administered were 4 g/kg, 4.91 g/kg, 6.14 g/kg, 7.68 g/kg, 9.6 g/kg, 12 g/kg, and 15 g/kg (the dose could be adjusted according to the actual test results), 12 ICR mice per dose group. If the administration volume is greater than 0.5 ml, it is better to perform the drug administration in two or more times (Note: according to the national standard GB 15193.3-2014, if multiple drug administrations are required, the time interval should be 4 h to 6 h each time, and the patient should be fasted on the day before drug administration).

[3] = tested on: rat paw swelling induced by monosodium urate (MSU); experiment: rat paw swelling model induced by monosodium urate (MSU); conditions: for inhibition in vivo at 90 mg/kg / inhibition in vivo at 0.36 mg/kg / inhibition in vivo at 1.8 mg/kg / inhibition in vivo at 9 mg/kg / change in vivo at 90 mg/kg: Rattus norvegicus, po; for inhibition in vivo at 90 mg/kg / inhibition in vivo at 0.36 mg/kg / inhibition in vivo at 1.8 mg/kg / inhibition in vivo at 9 mg/kg: 1 h, read-out: Swelling inhibition rate; for inhibition in vivo at 0.36 mg/kg: dosage 0.36 mg/kg; for inhibition in vivo at 1.8 mg/kg: dosage 1.8 mg/kg; for inhibition in vivo at 9 mg/kg: dosage 9 mg/kg; for change in vivo at 90 mg/kg: read-out: Swelling degree; for Mean volume of paw after administration: 1 h after onset of inflammation (50 μL 2% MSU)
Excerpt: Gout is a disease unique to human, and gouty arthritis is an inflammatory reaction caused by the deposition of monosodium urate (MSU) in local joint tissues. Since purine metabolism pathways in some mammals such as mice and rabbits are different from those in humans, it is impossible to construct a gouty arthritis model by the method of interfering with purine metabolism disorders, so the most direct method for causing gouty arthritis is to directly inject MSU into the joint cavity of the model animal. The model is only used for simulating local joint inflammation of gout, is suitable for observation of local arthritis symptoms, is a common method for screening anti-inflammatory effects of gout drugs at present, and has the advantages of stability, easy operation and the like. (Reference: Li Na, Hua Long, and Yuan Hui. Research progress of gout animal models [J]. Medical theory and practice, 2016(24).
The anti-gout effect of the compound prepared in the above Example was detected by using a rat paw swelling model induced by monosodium urate (MSU), and the control sample was methylprednisolone.
Experimental method: MSU was used as an inflammatory agent, injected subcutaneously into the hind paws of rats to cause paw swelling, and then the volume of the paws was measured, and the swelling rates and swelling inhibition rates of the treatment group and the control group were compared. On the day of the experiment, the volume of right hind paw (ml) of each rat was measured firstly, and then after the onset of inflammation, the volume of right hind paw was measured so that the difference of volume of paw before and after inflammation was swelling degree, and the swelling inhibition rate of paw (swelling inhibition rate %=(C−T)/C*100%); C=swelling rate of the control group %, and T=swelling rate of the treatment group) was calculated. This method is one of the commonly used methods for screening anti-inflammatory effects of gout drugs, and the model is stable and easy to operate.
(2) One week before the subcutaneous injection of MSU into the feet and soles of the rats, the rats were given different doses of the test drugs, and the drugs were given by gavage once a day, for seven consecutive days. The circumference of the right hind paw was marked and measured before the last administration, and the average value of the two measurements was taken as the standard. 1 h after the last administration, animals in other groups were given 50 μL of 2% MSU in addition to the blank control group, and the paw circumference was measured 1 h after the onset of inflammation. […]

[4] = ICR mice, 130 mg/kg by gavage once a day for seven days, 180 min after onset of inflammation
[5] = ICR mice, 130 mg/kg by gavage once a day for seven days
[6] = mouse, carrageenan-induced paw swelling
[7] = mouse, carrageenan-induced paw swelling, dosage 130 mg/kg
[8] = SD rats, 90 mg/kg by gavage once a day for seven days, 1 h after onset of inflammation
[9] = rat, MSU-induced paw swelling, dosage 90 mg/kg
[10] = SD rats, 90 mg/kg by gavage once a day for seven days

Row | SMILES | Swelling value [1, 4] [cm] | Circumference of the paw after administration [1, 5] [cm] | inhibition in vivo at 0.26 mg/kg [1, 6] [%] | inhibition in vivo at 13 mg/kg [1, 6] [%] | inhibition in vivo at 130 mg/kg [1, 7] [%] | change in vivo at 130 mg/kg [1, 4] [%] | inhibition in vivo at 130 mg/kg [1, 4] [%] | Mortality ([2]; 4 g/kg) | Mortality ([2]; 4.91 g/kg) | Mortality ([2]; 6.14 g/kg) | Mortality ([2]; 7.68 g/kg) | Mortality ([2]; 9.6 g/kg) | Mortality ([2]; 12 g/kg) | Mortality ([2]; 15 g/kg) | inhibition in vivo at 90 mg/kg [3, 8] [%] | inhibition in vivo at 0.36 mg/kg ([3]; rat, MSU-induced paw swelling) [%] | inhibition in vivo at 1.8 mg/kg ([3]; rat, MSU-induced paw swelling) [%] | inhibition in vivo at 9 mg/kg ([3]; rat, MSU-induced paw swelling) [%] | inhibition in vivo at 90 mg/kg [3, 9] [%] | change in vivo at 90 mg/kg [3, 8] [%] | other results
1 | C[C@H]1C[C@@H]2[C@H]([C@@H](O)C[C@@]3(C)[C@H]2CC[C@]3(O)/C(CO)=N/O)[C@@]2(C)C=CC(=NO)C=C12 [Example 1, (6S,8S, 9S, 10R, 11S, 13S, 14S, 17R)-11,17-dihydroxy-17-((E)-2-hydroxy-1-(hydroxyimino)ethyl)-6,10,13-trimethyl-6,7,8,9,10,11,12,13,14,15,16,17-dodecahydro-3H-cyclopentane[α]phenanthrene-3-one oxime] | 0.01 | 1.46 | 10.3 | 58.1 | 97.4 | 0.69 | 96.4 | 0/12 | 0/12 | 0/12 | 0/12 | 0/12 | 0/12 | 0/12 | 99.7 | 12.1 | 45.2 | 68.2 | 97.4 | 0.85 | Swelling value [3, 8]: 0.01 mL; Mean volume of paw after administration [3, 10]: 1.19 mL
2 | CC(=O)OC/C(=N\O)[C@@]1(O)CC[C@H]2[C@@H]3C[C@H](C)C4=CC(=NO)C=C[C@]4(C)[C@H]3[C@@H](O)C[C@@]21C [Example 2, (2E)-2-((6S,8S,9S,10R,11S,13S,14S,17R)-11,17-dihydroxy-3-(hydroxyimino)-6,10,13-trimethyl-6,7,8,9,10,11,12,13,14,15,16,17-dodecahydro-3H-cyclopentane[α]phenanthrene-17-yl)-2-(hydroxyimino)ethyl acetate] | 0.01 | 1.43 | 15.1 | 63.1 | 96.2 | 0.7 | 96.4 | 0/12 | 0/12 | 0/12 | 0/12 | 1/12 | 4/12 | 6/12 | 99 | 15.1 | 32.1 | 52.1 | 98.2 | 3.23 | Swelling value [3, 8]: 0.04 mL; Mean volume of paw after administration [3, 10]: 1.28 mL
3 | C[C@]12C=CC(=NO)C=C1CC[C@@H]1[C@@H]2[C@@H](O)C[C@@]2(C)[C@H]1CC[C@]2(O)/C(CO)=N/O [Example 3, (8S,9S,10R,11S,13S,14S,17R)-11,17-dihydroxy-17-((E)-2-hydroxy (hydroxyimino)ethyl)-10,13-dimethyl-6,7,8,9,10,11,12,13,14,15,16,17-dodecahydro-3H-cyclopentane[α]phenanthrene-3-one oxime] | 0.05 | 1.53 | 9.12 | 42.3 | 78.2 | 3.38 | 82.5 | 0/12 | 0/12 | 0/12 | 0/12 | 0/12 | 0/12 | 1/12 | 80.5 | 10.2 | 25.2 | 32.1 | 82.1 | 64.2 | Swelling value [3, 8]: 0.77 mL; Mean volume of paw after administration [3, 10]: 1.97 mL
4 | CCON=C1C=C[C@@]2(C)C(=C1)[C@@H](C)C[C@@H]1[C@@H]2[C@@H](O)C[C@@]2(C)[C@H]1CC[C@]2(O)/C(CO)=N/OCC [Example 9, (6S,8S,9S,10R,11S,13S,14S,17R,E)-17-((E)-1-(ethoxysimino)-2-hydroxyethyl)-11,17-dihydroxy-6,10,13-trimethyl-6,7,8,9,10,11,12,13,14,15,16,17-dodecahydro-3H-cyclopentane[α]phenanthrene-3-ketoO-ethyl oxime] |  |  |  |  |  |  |  | 0/12 | 0/12 | 0/12 | 0/12 | 0/12 | 0/12 | 2/12 |  |  |  |  |  |  | 
5 | C[C@H]1C[C@@H]2[C@H]([C@@H](O)C[C@@]3(C)[C@H]2CC[C@]3(O)C(=O)CO)[C@@]2(C)C=CC(=O)C=C12 [Methylprednisolone, methylprednisolone, reference compound] | 0.15 | 1.63 | 12.1 | 31.4 | 51.2 | 10.1 | 47.6 |  |  |  |  |  |  |  | 53.8 | 12.3 | 17.6 | 43.5 | 55.4 | 152 | Swelling value [3, 8]: 1.87 mL; Mean volume of paw after administration [3, 10]: 3.1 mL
